Results from ChEMBL document CHEMBL4507304, “Data for DCP probe TP-021” (2021).

How the values were obtained:
[1] = biological target: Serine/threonine-protein kinase TAO2 (Homo sapiens) (UniProt Q9UL54); settings: Compound concentration 1000.0 nM
[2] = biological target: Dual serine/threonine and tyrosine protein kinase (Homo sapiens) (UniProt Q6XUX3); settings: Compound concentration 1000.0 nM
[3] = biological target: Mitogen-activated protein kinase kinase kinase kinase 2 (Homo sapiens) (UniProt Q12851); settings: Compound concentration 1000.0 nM
[4] = biological target: Eukaryotic translation initiation factor 2-alpha kinase 1 (Homo sapiens) (UniProt Q9BQI3); settings: Compound concentration 1000.0 nM
[5] = biological target: Receptor tyrosine-protein kinase erbB-2 (Homo sapiens) (UniProt P04626); settings: Compound concentration 1000.0 nM
[6] = tested on: Receptor-type tyrosine-protein kinase FLT3 (Homo sapiens), P36888 [D835H]; settings: Compound concentration 1000.0 nM
[7] = biological target: Atypical kinase COQ8A, mitochondrial (Homo sapiens) (UniProt Q8NI60); settings: Compound concentration 1000.0 nM
[8] = biological target: TRAF2 and NCK-interacting protein kinase (Homo sapiens) (UniProt Q9UKE5); settings: Compound concentration 1000.0 nM
[9] = biological target: Calcium/calmodulin-dependent protein kinase type IV (Homo sapiens) (UniProt Q16566); settings: Compound concentration 1000.0 nM
[10] = biological target: TGF-beta receptor type-1 (Homo sapiens) (UniProt P36897); settings: Compound concentration 1000.0 nM
[11] = biological target: Leukocyte tyrosine kinase receptor (Homo sapiens) (UniProt P29376); settings: Compound concentration 1000.0 nM
[12] = biological target: Serine/threonine-protein kinase VRK2 (Homo sapiens) (UniProt Q86Y07); settings: Compound concentration 1000.0 nM
[13] = biological target: Dual specificity mitogen-activated protein kinase kinase 6 (Homo sapiens) (UniProt P52564); settings: Compound concentration 1000.0 nM
[14] = biological target: Cyclin-dependent kinase 18 (Homo sapiens) (UniProt Q07002); settings: Compound concentration 1000.0 nM
[15] = tested on: Phosphatidylinositol 4,5-bisphosphate 3-kinase catalytic subunit alpha isoform (Homo sapiens), P42336 [C420R]; settings: Compound concentration 1000.0 nM
[16] = biological target: Casein kinase I isoform delta (Homo sapiens) (UniProt P48730); settings: Compound concentration 1000.0 nM
[17] = biological target: D(3) dopamine receptor (Homo sapiens) (UniProt P35462); settings: Compound concentration 10.0 uM
[18] = biological target: Mitogen-activated protein kinase kinase kinase kinase 1 (Homo sapiens) (UniProt Q92918); settings: Compound concentration 1000.0 nM
[19] = biological target: Serine/threonine-protein kinase Chk1 (Homo sapiens) (UniProt O14757); settings: Compound concentration 1000.0 nM
[20] = biological target: MAP/microtubule affinity-regulating kinase 3 (Homo sapiens) (UniProt P27448); settings: Compound concentration 1000.0 nM
[21] = biological target: Serine/threonine-protein kinase 10 (Homo sapiens) (UniProt O94804); settings: Compound concentration 1000.0 nM
[22] = tested on: Epidermal growth factor receptor (Homo sapiens), P00533 [G719C]; settings: Compound concentration 1000.0 nM
[23] = biological target: AP2-associated protein kinase 1 (Homo sapiens) (UniProt Q2M2I8); settings: Compound concentration 1000.0 nM
[24] = biological target: Cyclin-dependent kinase 17 (Homo sapiens) (UniProt Q00537); settings: Compound concentration 1000.0 nM
[25] = biological target: ALK tyrosine kinase receptor (Homo sapiens) (UniProt Q9UM73); settings: Compound concentration 1000.0 nM
[26] = biological target: Wee1-like protein kinase 2 (Homo sapiens) (UniProt P0C1S8); settings: Compound concentration 1000.0 nM
[27] = biological target: Calcium/calmodulin-dependent protein kinase kinase 2 (Homo sapiens) (UniProt Q96RR4); settings: Compound concentration 1000.0 nM
[28] = biological target: Sigma non-opioid intracellular receptor 1 (Homo sapiens) (UniProt Q99720); settings: Compound concentration 10.0 uM
[29] = biological target: Interleukin-1 receptor-associated kinase 3 (Homo sapiens) (UniProt Q9Y616); settings: Compound concentration 1000.0 nM
[30] = biological target: Leucine-rich repeat serine/threonine-protein kinase 2 (Homo sapiens) (UniProt Q5S007); settings: Compound concentration 1000.0 nM
[31] = biological target: Homeodomain-interacting protein kinase 2 (Homo sapiens) (UniProt Q9H2X6); settings: Compound concentration 1000.0 nM
[32] = biological target: Protein kinase C eta type (Homo sapiens) (UniProt P24723); settings: Compound concentration 1000.0 nM
[33] = biological target: Activin receptor type-2A (Homo sapiens) (UniProt P27037); settings: Compound concentration 1000.0 nM
[34] = biological target: Ankyrin repeat and protein kinase domain-containing protein 1 (Homo sapiens) (UniProt Q8NFD2); settings: Compound concentration 1000.0 nM
[35] = biological target: G protein-coupled receptor kinase 4 (Homo sapiens) (UniProt P32298); settings: Compound concentration 1000.0 nM
[36] = biological target: cAMP-dependent protein kinase catalytic subunit PRKX (Homo sapiens) (UniProt P51817); settings: Compound concentration 1000.0 nM
[37] = biological target: Mitogen-activated protein kinase kinase kinase 7 (Homo sapiens) (UniProt O43318); settings: Compound concentration 1000.0 nM
[38] = biological target: Focal adhesion kinase 1 (Homo sapiens) (UniProt Q05397); settings: Compound concentration 1000.0 nM
[39] = biological target: Serine/threonine-protein kinase 25 (Homo sapiens) (UniProt O00506); settings: Compound concentration 1000.0 nM
[40] = biological target: Myosin light chain kinase family member 4 (Homo sapiens) (UniProt Q86YV6); settings: Compound concentration 1000.0 nM
[41] = biological target: Epithelial discoidin domain-containing receptor 1 (Homo sapiens) (UniProt Q08345); settings: Compound concentration 1000.0 nM
[42] = biological target: MAP kinase-activated protein kinase 2 (Homo sapiens) (UniProt P49137); settings: Compound concentration 1000.0 nM
[43] = biological target: Sodium-dependent serotonin transporter (Homo sapiens) (UniProt P31645); settings: Compound concentration 10.0 uM
[44] = biological target: Serine/threonine-protein kinase 17A (Homo sapiens) (UniProt Q9UEE5); settings: Compound concentration 1000.0 nM
[45] = biological target: Serine/threonine-protein kinase Sgk3 (Homo sapiens) (UniProt Q96BR1); settings: Compound concentration 1000.0 nM

Chain of Activin receptor type-2A (Homo sapiens) (P27037 whole entry, the tested form may be a part): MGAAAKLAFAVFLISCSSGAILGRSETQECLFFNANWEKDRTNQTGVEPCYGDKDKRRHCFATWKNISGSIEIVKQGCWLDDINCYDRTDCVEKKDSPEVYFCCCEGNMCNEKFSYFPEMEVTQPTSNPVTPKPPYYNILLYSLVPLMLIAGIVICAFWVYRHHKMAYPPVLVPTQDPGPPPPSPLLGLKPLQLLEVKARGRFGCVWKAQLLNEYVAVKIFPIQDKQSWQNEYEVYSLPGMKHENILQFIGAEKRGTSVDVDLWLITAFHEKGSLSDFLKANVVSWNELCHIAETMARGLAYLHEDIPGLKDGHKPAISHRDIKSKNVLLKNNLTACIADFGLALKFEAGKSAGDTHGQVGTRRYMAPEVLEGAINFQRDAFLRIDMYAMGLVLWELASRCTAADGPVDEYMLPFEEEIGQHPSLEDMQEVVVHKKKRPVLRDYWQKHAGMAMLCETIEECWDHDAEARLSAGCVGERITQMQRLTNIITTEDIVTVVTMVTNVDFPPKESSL
Chain of TGF-beta receptor type-1 (Homo sapiens) (P36897 whole entry): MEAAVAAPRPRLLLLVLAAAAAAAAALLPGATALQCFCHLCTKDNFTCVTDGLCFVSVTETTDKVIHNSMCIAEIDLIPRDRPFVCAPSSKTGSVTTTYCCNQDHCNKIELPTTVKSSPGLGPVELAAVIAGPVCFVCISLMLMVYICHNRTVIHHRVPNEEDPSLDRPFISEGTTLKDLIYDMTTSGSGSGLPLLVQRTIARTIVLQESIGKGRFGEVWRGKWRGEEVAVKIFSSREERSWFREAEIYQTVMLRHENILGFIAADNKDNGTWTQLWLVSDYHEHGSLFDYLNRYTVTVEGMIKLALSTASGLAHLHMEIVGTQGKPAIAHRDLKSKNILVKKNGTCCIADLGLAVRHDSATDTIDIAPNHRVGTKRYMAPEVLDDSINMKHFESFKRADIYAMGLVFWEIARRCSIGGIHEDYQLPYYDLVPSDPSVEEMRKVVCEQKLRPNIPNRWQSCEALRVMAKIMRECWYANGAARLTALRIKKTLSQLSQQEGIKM
Chain of Leucine-rich repeat serine/threonine-protein kinase 2 (Homo sapiens) (Q5S007 whole entry): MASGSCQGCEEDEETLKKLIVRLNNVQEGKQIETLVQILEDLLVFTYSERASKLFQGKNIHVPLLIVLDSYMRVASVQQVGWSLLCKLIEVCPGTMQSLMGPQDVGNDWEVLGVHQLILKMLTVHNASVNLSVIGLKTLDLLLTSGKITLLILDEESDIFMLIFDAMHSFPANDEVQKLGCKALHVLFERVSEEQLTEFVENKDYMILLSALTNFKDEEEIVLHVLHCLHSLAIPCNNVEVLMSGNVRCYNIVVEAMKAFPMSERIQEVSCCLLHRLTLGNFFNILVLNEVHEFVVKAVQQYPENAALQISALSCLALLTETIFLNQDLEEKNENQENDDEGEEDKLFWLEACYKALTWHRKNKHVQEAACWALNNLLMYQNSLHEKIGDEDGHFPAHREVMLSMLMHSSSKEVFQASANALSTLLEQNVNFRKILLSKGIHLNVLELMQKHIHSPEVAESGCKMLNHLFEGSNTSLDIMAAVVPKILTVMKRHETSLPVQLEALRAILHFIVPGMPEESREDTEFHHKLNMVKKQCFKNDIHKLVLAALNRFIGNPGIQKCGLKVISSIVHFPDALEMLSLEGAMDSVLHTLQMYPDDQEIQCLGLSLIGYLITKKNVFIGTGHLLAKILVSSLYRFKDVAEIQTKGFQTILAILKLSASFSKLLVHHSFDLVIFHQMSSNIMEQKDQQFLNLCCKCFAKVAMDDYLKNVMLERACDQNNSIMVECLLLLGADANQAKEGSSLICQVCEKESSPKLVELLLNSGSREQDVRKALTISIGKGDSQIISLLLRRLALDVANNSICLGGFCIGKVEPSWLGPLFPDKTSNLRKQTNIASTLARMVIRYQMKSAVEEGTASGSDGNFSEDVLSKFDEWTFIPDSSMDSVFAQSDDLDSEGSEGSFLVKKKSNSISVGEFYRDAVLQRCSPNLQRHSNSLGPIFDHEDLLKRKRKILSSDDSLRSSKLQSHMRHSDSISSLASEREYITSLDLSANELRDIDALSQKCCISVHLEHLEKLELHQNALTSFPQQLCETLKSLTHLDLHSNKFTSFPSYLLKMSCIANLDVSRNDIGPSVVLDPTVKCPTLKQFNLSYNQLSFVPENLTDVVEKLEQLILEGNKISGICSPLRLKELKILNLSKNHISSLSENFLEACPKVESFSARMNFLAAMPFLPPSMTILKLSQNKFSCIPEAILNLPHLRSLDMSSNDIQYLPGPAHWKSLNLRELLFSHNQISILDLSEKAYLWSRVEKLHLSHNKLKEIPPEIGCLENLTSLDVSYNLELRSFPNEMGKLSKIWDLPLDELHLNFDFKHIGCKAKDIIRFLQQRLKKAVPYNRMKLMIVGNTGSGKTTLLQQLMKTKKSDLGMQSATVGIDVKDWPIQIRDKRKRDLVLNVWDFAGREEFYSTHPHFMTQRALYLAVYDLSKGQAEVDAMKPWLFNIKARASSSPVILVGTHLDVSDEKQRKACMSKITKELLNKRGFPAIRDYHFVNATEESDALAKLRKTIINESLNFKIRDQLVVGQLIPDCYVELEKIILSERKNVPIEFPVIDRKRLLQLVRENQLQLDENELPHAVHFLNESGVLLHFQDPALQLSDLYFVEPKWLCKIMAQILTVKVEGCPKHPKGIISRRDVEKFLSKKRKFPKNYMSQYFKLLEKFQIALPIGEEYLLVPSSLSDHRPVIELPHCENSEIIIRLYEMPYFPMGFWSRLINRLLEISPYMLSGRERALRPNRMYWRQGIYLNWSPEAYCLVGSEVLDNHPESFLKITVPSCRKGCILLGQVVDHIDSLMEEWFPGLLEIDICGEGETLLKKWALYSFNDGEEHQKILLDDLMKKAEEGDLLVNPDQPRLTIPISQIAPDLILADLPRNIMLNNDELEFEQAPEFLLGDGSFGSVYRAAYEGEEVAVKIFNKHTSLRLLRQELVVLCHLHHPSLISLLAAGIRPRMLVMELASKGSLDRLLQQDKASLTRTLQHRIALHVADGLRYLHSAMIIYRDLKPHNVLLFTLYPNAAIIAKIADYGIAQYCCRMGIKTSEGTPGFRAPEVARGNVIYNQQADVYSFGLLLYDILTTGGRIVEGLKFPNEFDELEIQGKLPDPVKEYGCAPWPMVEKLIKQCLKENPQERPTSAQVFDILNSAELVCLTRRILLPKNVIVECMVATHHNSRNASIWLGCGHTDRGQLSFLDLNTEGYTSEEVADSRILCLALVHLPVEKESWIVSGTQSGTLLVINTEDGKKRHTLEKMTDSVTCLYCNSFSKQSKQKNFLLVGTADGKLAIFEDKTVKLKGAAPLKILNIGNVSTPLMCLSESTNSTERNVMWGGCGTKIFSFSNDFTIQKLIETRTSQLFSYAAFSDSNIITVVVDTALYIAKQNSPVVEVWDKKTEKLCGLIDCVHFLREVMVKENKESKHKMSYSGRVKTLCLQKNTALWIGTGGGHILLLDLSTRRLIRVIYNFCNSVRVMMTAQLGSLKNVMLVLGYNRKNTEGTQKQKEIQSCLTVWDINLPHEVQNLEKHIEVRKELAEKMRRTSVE
Chain of ALK tyrosine kinase receptor (Homo sapiens) (Q9UM73 19-1620 limits assumed): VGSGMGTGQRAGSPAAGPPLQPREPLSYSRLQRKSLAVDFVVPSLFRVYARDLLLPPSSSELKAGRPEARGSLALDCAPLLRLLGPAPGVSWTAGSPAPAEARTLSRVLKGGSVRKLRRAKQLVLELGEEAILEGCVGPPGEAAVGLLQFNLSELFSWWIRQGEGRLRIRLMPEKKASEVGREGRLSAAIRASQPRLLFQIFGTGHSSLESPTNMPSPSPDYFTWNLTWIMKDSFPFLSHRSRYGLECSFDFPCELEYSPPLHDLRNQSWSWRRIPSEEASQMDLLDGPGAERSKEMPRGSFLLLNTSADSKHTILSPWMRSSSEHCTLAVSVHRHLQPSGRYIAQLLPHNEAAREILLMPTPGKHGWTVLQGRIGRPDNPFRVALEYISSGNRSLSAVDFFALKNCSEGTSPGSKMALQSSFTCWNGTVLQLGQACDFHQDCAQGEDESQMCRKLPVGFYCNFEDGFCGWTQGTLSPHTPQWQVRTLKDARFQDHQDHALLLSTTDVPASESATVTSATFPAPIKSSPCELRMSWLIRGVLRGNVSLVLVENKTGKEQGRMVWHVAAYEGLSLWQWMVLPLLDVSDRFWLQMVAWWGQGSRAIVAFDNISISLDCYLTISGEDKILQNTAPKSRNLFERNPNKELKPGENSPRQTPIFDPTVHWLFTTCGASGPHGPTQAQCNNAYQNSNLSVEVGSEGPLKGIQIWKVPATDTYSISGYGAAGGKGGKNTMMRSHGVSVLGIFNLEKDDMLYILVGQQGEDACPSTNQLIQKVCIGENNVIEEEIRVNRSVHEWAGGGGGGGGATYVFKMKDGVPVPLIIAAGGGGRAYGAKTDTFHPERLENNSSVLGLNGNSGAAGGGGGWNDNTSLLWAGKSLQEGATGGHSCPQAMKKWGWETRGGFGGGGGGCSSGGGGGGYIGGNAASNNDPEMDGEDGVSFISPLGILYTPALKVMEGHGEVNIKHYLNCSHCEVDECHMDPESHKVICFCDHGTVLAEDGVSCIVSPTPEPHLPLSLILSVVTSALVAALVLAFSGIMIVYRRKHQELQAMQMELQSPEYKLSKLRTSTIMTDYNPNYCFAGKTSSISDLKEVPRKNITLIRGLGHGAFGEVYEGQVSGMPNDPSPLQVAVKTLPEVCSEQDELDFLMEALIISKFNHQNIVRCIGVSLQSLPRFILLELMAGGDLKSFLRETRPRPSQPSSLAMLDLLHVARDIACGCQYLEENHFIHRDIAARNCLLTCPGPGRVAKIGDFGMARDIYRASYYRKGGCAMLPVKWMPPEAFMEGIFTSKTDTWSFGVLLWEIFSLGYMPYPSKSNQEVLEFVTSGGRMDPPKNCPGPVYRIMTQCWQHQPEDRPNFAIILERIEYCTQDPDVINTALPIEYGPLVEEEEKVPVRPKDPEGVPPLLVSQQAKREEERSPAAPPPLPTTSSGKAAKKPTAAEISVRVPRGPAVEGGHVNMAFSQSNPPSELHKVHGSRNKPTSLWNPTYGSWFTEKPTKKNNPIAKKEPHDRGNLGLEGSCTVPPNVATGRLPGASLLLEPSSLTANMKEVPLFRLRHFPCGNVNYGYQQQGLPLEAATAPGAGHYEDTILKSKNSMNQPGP

N#Cc1ccc(Nc2ccc3[nH]c(=O)[nH]c3c2)c(Cl)c1
inactive: residual activity [1] 100% | residual activity [2] 75% | residual activity [3] 100% | residual activity [4] 100% | residual activity [5] 100% | residual activity [6] 100% | residual activity [7] 100% | residual activity [8] 99% | residual activity [9] 100% | residual activity [10] 100% | residual activity [11] 100% | residual activity [12] 100% | residual activity [13] 80% | residual activity [14] 100% | residual activity [15] 90% | residual activity [16] 100% | inhibition [17] 3.81% | residual activity [18] 100% | residual activity [19] 98% | residual activity [20] 100% | residual activity [21] 100% | residual activity [22] 100% | residual activity [23] 100% | residual activity [24] 100% | residual activity [25] 100% | residual activity [26] 100% | residual activity [27] 91% | inhibition [28] 14% | residual activity [29] 94% | residual activity [30] 96% | residual activity [31] 100% | residual activity [32] 97% | residual activity [33] 70% | residual activity [34] 100% | residual activity [35] 100% | residual activity [36] 100% | residual activity [37] 90% | residual activity [38] 100% | residual activity [39] 100% | residual activity [40] 100% | residual activity [41] 100% | residual activity [42] 100% | inhibition [43] 21.1% | residual activity [44] 94% | residual activity [45] 100%

O=C1CCc2cc(Nc3cc(OC4CCOCC4)c([N+](=O)[O-])cc3Cl)ccc2N1
inactive: residual activity [1] 82% | residual activity [2] 90% | residual activity [3] 95% | residual activity [4] 100% | residual activity [5] 100% | residual activity [6] 99% | residual activity [7] 100% | residual activity [8] 100% | residual activity [9] 100% | residual activity [10] 100% | residual activity [11] 100% | residual activity [12] 100% | residual activity [13] 69% | residual activity [14] 100% | residual activity [15] 97% | residual activity [16] 90% | inhibition [17] 35.4% | residual activity [18] 100% | residual activity [19] 95% | residual activity [20] 100% | residual activity [21] 100% | residual activity [22] 100% | residual activity [23] 100% | residual activity [24] 91% | residual activity [25] 82% | residual activity [26] 96% | residual activity [27] 100% | inhibition [28] 11.7% | residual activity [29] 98% | residual activity [30] 72% | residual activity [31] 100% | residual activity [32] 86% | residual activity [33] 81% | residual activity [34] 82% | residual activity [35] 100% | residual activity [36] 100% | residual activity [37] 95% | residual activity [38] 100% | residual activity [39] 100% | residual activity [40] 96% | residual activity [41] 94% | residual activity [42] 99% | inhibition [43] 23.5% | residual activity [44] 95% | residual activity [45] 100%
